This passage reports EC50 and Ki results from patent publication US8039458B2, “HIV integrase inhibitors” (priority 2005, dated 2011).

A value given as a limit tells only on which side of the number the result lay.

For test [1], the system named is recombinant NL-Rluc virus. The test can be described thus: Inhibition of HIV replication (NL-RLuc virus, Renilla luciferase). Type of test: cell-based. To be noted: Human immunodeficiency virus 1, read-out: antiviral actitively.
A further test concerns the target T1, HIV-Integrase (Human immunodeficiency virus type 1 group M subtype B, UniProt P12497).
T1 construct: Recombinant integrase (0.26 ng) was incubated with the beads
The test can be described thus: HIV-Integrase binding assay (competition with [3H]-compound I, SPA). To be noted: competitive binding vs [3H]-compound I to purified integrase; Ki by Cheng and Prusoff; read-out: in vitro binding. The method, then: HIV-Integrase Inhibition Activity. To evaluate in-vitro activity against HIV-integrase, 5 pmole of biotin labeled substrate DNA was bound to 100 μg of Streptavidin coated PVT SPA beads (Amersham Pharmacia Biotech). Recombinant integrase (0.26 ng) was incubated with the beads for 90 min at 37° C. Unbound enzyme was removed by washing the complex followed by addition of inhibitors and 0.1 fmol of P33 labeled target DNA. The reaction was stopped by adding EDTA to a final concentration of 10 mM. Samples were counted in TopCountNXT (Packard) and the CPM was used as a measure of integration. The reaction condition was as described in A. Engelman and R. Craigie, J. Virol. 69, 5908-5911 (1995). The sequences of substrate and target DNA were described in Nucleic Acid Research 22,1121-1122 (1994).
HIV-Integrase binding assay. In this assay competitive binding experiments with test compounds and a radiolabeled integrase inhibitor (compound I) are performed against purified integrase. SPA bead/DNA/enzyme complexes were prepared as for the integrase inhibition assay except, to each well, 0.69 μl of integrase enzyme ([…]) was used per 2 μl of LTR DNA-attached scintillation proximity beads (stock 50 mg/ml). Binding reactions were carried out in 96-well white polystyrene assay plates (Corning, #3600). The following was added sequentially to each well: 20 μl of water or 20 μl of human serum (Cellgro Cat# 35-060-CL), 5 μl of serially diluted compound (in 50% DMSO/50% integrase SPA buffer), 5 μl of [^3H]-compound I (6,000 cpm/μl in SPA buffer) and 20 μl of bead/DNA/enzyme complex. The plates were shaken for 2 hours and then allowed to sit at room temperature without shaking overnight. The [^3H]-compound I binding was measured using a Topcount scintillation counter. Cheng and Prusoff equations were used to convert the inhibition of compound 1 binding into the corresponding Ki value. Activity equal to A refers to a compound having Ki=0.001 to 0.003 μM while B and C denote compounds having Ki=0.003 to 0.05 μM and Ki≧0.050 μM respectively.

As to `CC1(C)COCCn2c1nc(C(=O)NCc1ccc(F)cc1)c(O)c2=O` [Example 1, N-((4-Fluorophenyl)methyl)-3-hydroxy-10,10-dimethyl-4-oxo-6,7,9,10-tetrahydro-4H-pyrimido[1,2-d][1,4]oxazepine-2-carboxamide], in test [1], the EC50 was in the range of 10 to 50 nM. Further, the Ki at HIV-Integrase was in the range of 3 to 50 nM.
On the same counts, the results for `CC1(C)COCCn2c1nc(C(=O)NCc1ccc(F)cc1-n1cncn1)c(O)c2=O` [Example 2, N-((4-Fluoro-2-(1H-1,2,4-triazol-1-yl)phenyl)methyl)-3-hydroxy-10,10-dimethyl-4-oxo-6,7,9,10-tetrahydro-4H-pyrimido[1,2-d][1,4]oxazepine-2-carboxamide] are 1 to 10 nM and 3 to 50 nM.
On the same counts, the results for `CC1(C)COCCn2c1nc(C(=O)NCc1ccc(F)cc1S(C)(=O)=O)c(O)c2=O` [Example 3, N-((4-Fluoro-2-(methylsulfonyl)phenyl)methyl)-3-hydroxy-10,10-dimethyl-4-oxo-6,7,9,10-tetrahydro-4H-pyrimido[1,2-d][1,4]oxazepine-2-carboxamide] are 1 to 10 nM and 3 to 50 nM.
Regarding `Cc1ncnn1-c1cc(F)ccc1CNC(=O)c1nc2n(c(=O)c1O)CCOCC2(C)C` [Example 4, N-((4-Fluoro-2-(5-methyl-1H-1,2,4-triazol-1-yl)phenyl)methyl)-3-hydroxy-10,10-dimethyl-4-oxo-6,7,9,10-tetrahydro-4H-pyrimido[1,2-d][1,4]oxazepine-2-carboxamide], the EC50 in test [1] lay within 1 to 10 nM. The Ki on HIV-Integrase was in the range of 3 to 50 nM.
With `Cc1nc(C)n(-c2cc(F)ccc2CNC(=O)c2nc3n(c(=O)c2O)CCOCC3(C)C)n1` [Example 5, N-((2-(3,5-dimethyl-1H-1,2,4-triazol-1-yl)-4-fluorophenyl)methyl)-3-hydroxy-10,10-dimethyl-4-oxo-6,7,9,10-tetrahydro-4H-pyrimido[1,2-d][1,4]oxazepine-2-carboxamide], the EC50 in test [1] was in the range of 10 to 50 nM. For the same molecule, the Ki at HIV-Integrase fell in the range of 3 to 50 nM.
`Cc1ncn(-c2cc(F)ccc2CNC(=O)c2nc3n(c(=O)c2O)CCOCC3(C)C)n1` [Example 6, N-((4-fluoro-2-(3-methyl-1H-1,2,4-triazol-1-yl)phenyl)methyl)-3-hydroxy-10,10-dimethyl-4-oxo-6,7,9,10-tetrahydro-4H-pyrimido[1,2-d][1,4]oxazepine-2-carboxamide]: in test [1], the EC50 is 1 to 10 nM. Moreover, the Ki on HIV-Integrase was in the range of 3 to 50 nM.
On the same counts, the results for `O=C(NCc1ccc(F)cc1)c1nc2n(c(=O)c1O)CCOCC21CCC1` [Example 7, N-((4-fluorophenyl)methyl)-3′-hydroxy-4′-oxo-6′,7′-dihydro-4′H-spiro[cyclobutane-1,10′-pyrimido[1,2-d][1,4]oxazepine]-2′-carboxamide] are 10 to 50 nM and 1 to 3 nM.
On the same counts, the results for `CS(=O)(=O)c1cc(F)ccc1CNC(=O)c1nc2n(c(=O)c1O)CCOCC21CCC1` [Example 8, N-((4-fluoro-2-(methylsulfonyl)phenyl)methyl)-3′-hydroxy-4′-oxo-6′,7′-dihydro-4′H-spiro[cyclobutane-1,10′-pyrimido[1,2-d][1,4]oxazepine]-2′-carboxamide] are 1 to 10 nM and 1 to 3 nM.
As for `O=C(NCc1ccc(F)cc1-n1cncn1)c1nc2n(c(=O)c1O)CCOCC21CCC1` [Example 9, N-((4-fluoro-2-(1H-1,2,4-triazol-1-yl)phenyl)methyl)-3′-hydroxy-4′-oxo-6′,7′-dihydro-4′H-spiro[cyclobutane-1,10′-pyrimido[1,2-d][1,4]oxazepine]-2′-carboxamide], the EC50 in test [1] lay within 1 to 10 nM. In addition, the Ki at HIV-Integrase lay within 1 to 3 nM.
On the same counts, the results for `Cc1ncnn1-c1cc(F)ccc1CNC(=O)c1nc2n(c(=O)c1O)CCOCC21CCC1` [Example 10, N-((4-fluoro-2-(5-methyl-1H-1,2,4-triazol-1-yl)phenyl)methyl)-3′-hydroxy-4′-oxo-6′,7′-dihydro-4′H-spiro[cyclobutane-1,10′-pyrimido[1,2-d][1,4]oxazepine]-2′-carboxamide] are 1 to 10 nM and 1 to 3 nM.
On the same counts, the results for `Cc1nc(C)n(-c2cc(F)ccc2CNC(=O)c2nc3n(c(=O)c2O)CCOCC32CCC2)n1` [Example 11, N-((2-(3,5-dimethyl-1H-1,2,4-triazol-1-yl)-4-fluorophenyl)methyl)-3′-hydroxy-4′-oxo-6′,7′-dihydro-4′H-spiro[cyclobutane-1,10′-pyrimido[1,2-d][1,4]oxazepine]-2′-carboxamide] are 1 to 10 nM and 3 to 50 nM.
As to `O=C(NCc1ccc(F)cc1)c1nc2n(c(=O)c1O)CCOCC21CCCC1` [Example 12, N-((4-fluorophenyl)methyl)-3′-hydroxy-4′-oxo-6′,7′-dihydro-4′H-spiro[cyclopentane-1,10′-pyrimido[1,2-d][1,4]oxazepine]-2′-carboxamide], the EC50 in test [1] fell in the range of 1 to 10 nM. In addition, the Ki on HIV-Integrase lay in the range of 1 to 3 nM.
On the same counts, the results for `CS(=O)(=O)c1cc(F)ccc1CNC(=O)c1nc2n(c(=O)c1O)CCOCC21CCCC1` [Example 13, N-((4-fluoro-2-(methylsulfonyl)phenyl)methyl)-3′-hydroxy-4′-oxo-6′,7′-dihydro-4′H-spiro[cyclopentane-1,10′-pyrimido[1,2-d][1,4]oxazepine]-2′-carboxamide] are 1 to 10 nM and 1 to 3 nM.
In the case of `O=C(NCc1ccc(F)cc1-n1cncn1)c1nc2n(c(=O)c1O)CCOCC21CCCC1` [Example 14, N-((4-fluoro-2-(1H-1,2,4-triazol-1-yl)phenyl)methyl)-3′-hydroxy-4′-oxo-6′,7′-dihydro-4′H-spiro[cyclopentane-1,10′-pyrimido[1,2-d][1,4]oxazepine]-2′-carboxamide], the EC50 in test [1] was in the range of 1 to 10 nM. For the same molecule, the Ki on HIV-Integrase lay in the range of 1 to 3 nM.
On the same counts, the results for `Cn1nnc(-c2cc(F)ccc2CNC(=O)c2nc3n(c(=O)c2O)CCOCC32CCCC2)n1` [Example 15, N-((4-fluoro-2-(2-methyl-2H-tetrazol-5-yl)phenyl)methyl)-3′-hydroxy-4′-oxo-6′,7′-dihydro-4′H-spiro[cyclopentane-1,10′-pyrimido[1,2-d][1,4]oxazepine]-2′-carboxamide] are 1 to 10 nM and 1 to 3 nM.
On the same counts, the results for `CC1(C)COCCn2c1nc(C(=O)NCc1ccc(F)cc1N1CCCC1=O)c(O)c2=O` [Example 16, N-((4-fluoro-2-(2-oxo-1-pyrrolidinyl)phenyl)methyl)-3-hydroxy-10,10-dimethyl-4-oxo-6,7,9,10-tetrahydro-4H-pyrimido[1,2-d][1,4]oxazepine-2-carboxamide] are 1 to 10 nM and 1 to 3 nM.
`COP(=O)(OC)c1cc(F)ccc1CNC(=O)c1nc2n(c(=O)c1O)CCOCC2(C)C` [Example 17, Dimethyl (5-fluoro-2-((((3-hydroxy-10,10-dimethyl-4-oxo-6,7,9,10-tetrahydro-4H-pyrimido[1,2-d][1,4]oxazepin-2-yl)carbonyl)amino)methyl)phenyl)-phosphonate]: the EC50 in test [1] lay in the range of 1 to 10 nM. Besides, on HIV-Integrase, the Ki lay within 3 to 50 nM.
On the same counts, the results for `Cc1nnn(-c2cc(F)ccc2CNC(=O)c2nc3n(c(=O)c2O)CCOCC3(C)C)c1C` [Example 18, N-(2-(4,5-Dimethyl-1H-1,2,3-triazol-1-yl)-4-fluorobenzyl)-3-hydroxy-10,10-dimethyl-4-oxo-6,7,9,10-tetrahydro-4H-pyrimido[1,2-d][1,4]oxazepine-2-carboxamide] are 1 to 10 nM and 3 to 50 nM.
On the same counts, the results for `Cc1cnnn1-c1cc(F)ccc1CNC(=O)c1nc2n(c(=O)c1O)CCOCC2(C)C` [Example 19, N-(4-fluoro-2-(5-methyl-1H-1,2,3-triazol-1-yl)benzyl)-3-hydroxy-10,10-dimethyl-4-oxo-6,7,9,10-tetrahydro-4H-pyrimido[1,2-d][1,4]oxazepine-2-carboxamide] are 1 to 10 nM and 3 to 50 nM.
On the same counts, the results for `CC1(C)COCCn2c1nc(C(=O)NCc1ccc(F)cc1-n1ncnc1-c1ccccc1)c(O)c2=O` [Example 20, N-((4-fluoro-2-(5-phenyl-1H-1,2,4-triazol-1-yl)phenyl)methyl)-3-hydroxy-10,10-dimethyl-4-oxo-6,7,9,10-tetrahydro-4H-pyrimido[1,2-d][1,4]oxazepine-2-carboxamide] are over 50 nM and at least 50 nM.
With `Cc1ncn(-c2cc(F)ccc2CNC(=O)c2nc3n(c(=O)c2O)CCOCC32CCCC2)n1` [Example 21, N-((4-fluoro-2-(3-methyl-1H-1,2,4-triazol-1-yl)phenyl)methyl)-3′-hydroxy-4′-oxo-6′,7′-dihydro-4′H-spiro[cyclopentane-1,10′-pyrimido[1,2-d][1,4]oxazepine]-2′-carboxamide], the EC50 in test [1] is 1 to 10 nM. For the same molecule, the Ki at HIV-Integrase was in the range of 1 to 3 nM.
